One assay deals with BxPC-3 cells. Briefly: BxPC-3 cell proliferation test (CTG). The format is cell-based. Particulars: Homo sapiens, 144 h, 6 days. How it is done:
To detect the inhibitory effects of the aforementioned compounds on the proliferation ability of BxPC-3 cells, 125 BxPC-3 cells (ATCC®CRL-1687) were seeded into a 384-well plate (Corning 3765), 35 μL per well, and placed in a constant temperature incubator at 37° C. and 5% CO2 overnight. Then, 40 nL of the compound was added to the 384-well plate using an Echo 655 Liquid Handler, with a maximum final concentration of 10 μM, 1:3 serial dilution, and in a total of 10 doses. Incubation was performed at 37° C., 5% CO2 for 6 days. The plate was taken out from the incubator and equilibrated at room temperature for 10 minutes. 20 μL of CTG (Promage G7572) was added to each well of the plate according to the platemap. The plate was centrifuged at 1000 rpm for 1 minute. The lysis of cells was induced by mixing on a shaker for 2 minutes. The plate was centrifuged at 1000 rpm for 1 minute. Incubation was performed at room temperature for 10 minutes to stabilize luminescence signals. Luminescence values were recorded by Envision (PerkinElmer 2105-0020). GraphPad 9.0 was used to fit the inhibition rate and compound concentration into a nonlinear regression curve (dose response-variable slope) to calculate GI50, inhibition rate={1−(A−B)/(C−B)}*100%, A=signal value of compound; B=average signal of blank control; C=average signal of negative control (wherein the negative control was 0.1% DMSO).

The next assay concerns the target T1, p53 Y220C (Homo sapiens, UniProt P04637, P309S/R273H/Y220C).
T1 construct: a truncated mutant containing only amino acids 94-312 of p53; made in house; host or cells: E. coli
Briefly: DNA binding test (HTRF): binding of P53Y220C protein to DNA. It counts as biochemical. To be noted: HTRF, activation of p53 Y220C (aa 94-312) binding to biotin DNA.

Molecules are shown by their SMILES.

T1 sequence (P04637 94-312, stated change not applied): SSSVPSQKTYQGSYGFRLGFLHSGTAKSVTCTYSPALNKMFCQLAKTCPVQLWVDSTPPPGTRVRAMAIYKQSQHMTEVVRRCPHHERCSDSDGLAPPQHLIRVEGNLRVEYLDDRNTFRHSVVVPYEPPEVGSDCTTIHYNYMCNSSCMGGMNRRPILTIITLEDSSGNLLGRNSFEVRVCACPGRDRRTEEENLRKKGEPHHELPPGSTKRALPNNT

Regarding `CNC(=O)c1ccc(NCC#Cc2nc3c(NC4CCC(N5CC6(COC6)C5)CC4F)cccn3c2CC(F)(F)F)c(OC)c1` (single isomer, unassigned) [Compound 35-6i], the GI50 (as a rule, the concentration at which growth is held to half of that of the control) in the assay on BxPC-3 cells was below 1000 nM. For the same compound, the EC50 (commonly the concentration needed to bring the measured effect to its halfway point) on p53 Y220C is below 100 nM.

At p53 Y220C, `[2H]C([2H])([2H])NC(=O)c1ccc(NCC#Cc2cc3c(NC4CCC(N5CC6(COC6)C5)CC4F)cccn3c2CC(F)(F)F)c(OC([2H])([2H])[2H])c1` (single isomer, unassigned) [Compound 74d] came in with a concentration for a half-maximal effect (EC50) below 100 nM.

With `[2H]C([2H])([2H])NC(=O)c1ccc(NCC#Cc2nc3c(NC4CC[C@@H](N5CC6(COC6)C5)C[C@@H]4F)cccn3c2CC(F)(F)F)c(OC([2H])([2H])[2H])c1` (stereo partly drawn) [Compound 64], the GI50 in the assay on BxPC-3 cells was below 1000 nM. Besides, on p53 Y220C, the EC50 is below 100 nM.

For the compound `CNC(=O)c1ccc(NCC#Cc2nc3c(N[C@@H]4CCN(C)C[C@@H]4F)cccn3c2CC(F)(F)F)c(OC)c1` [Compound 5], in the assay with BxPC-3 cells, the GI50 is below 1000 nM. On p53 Y220C, this compound yielded an EC50 below 100 nM. Compound `COc1cc(C(=O)NC2CC2)ccc1NCC#Cc1nc2c(NC3CC[C@@H](N4CC5(COC5)C4)C[C@@H]3F)cccn2c1CC(F)(F)F` (stereo partly drawn) [Compound 54] came in with an EC50 at p53 Y220C below 100 nM. For the compound `CNC(=O)c1ccc(NCC#Cc2nc3c(NC4CC[C@@H](N5CC6(COC6)C5)C[C@@H]4F)cccn3c2CC(F)(F)F)c(OCF)c1` (stereo partly drawn) [Compound 58], the GI50 in the assay with BxPC-3 cells is below 1000 nM.

For the origin of these results see US20260132128A1, “COMPOUND FOR RECOVERING P53 MUTATION FUNCTION AND USE THEREOF” (SHENZHEN ZHONGGE BIOLOGICAL TECHNOLOGY CO., LTD., priority 2022, published 2026).
